# Data: US12448371B2, “Inhibitor compounds” (Cincera Therapeutics Pty Ltd, priority 2019, dated 2025)
# Counter-ions that a name gives are not always drawn.
# Molecular target: T1, Des1 (h) (Homo sapiens, UniProt O15121)
# T1 construct: endogenous in cells; host or cells: parental Jurkat cells
# T1 sequence (O15121 1-323): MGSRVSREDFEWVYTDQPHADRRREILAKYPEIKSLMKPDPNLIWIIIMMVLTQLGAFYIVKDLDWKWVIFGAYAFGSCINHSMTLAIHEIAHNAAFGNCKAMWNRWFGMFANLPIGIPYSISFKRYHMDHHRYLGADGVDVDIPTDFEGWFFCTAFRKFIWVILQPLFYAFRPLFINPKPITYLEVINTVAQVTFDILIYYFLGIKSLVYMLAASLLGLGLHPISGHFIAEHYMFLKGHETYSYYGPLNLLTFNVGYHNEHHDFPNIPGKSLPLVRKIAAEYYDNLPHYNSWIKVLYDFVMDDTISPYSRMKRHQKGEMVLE
# Assay: Measurement of Dihydroceramide Desaturase-1 (Des-1) activity in intact Jurkat cells labeled with DhCer-C6-NBD (HPLC)
# Format: cell-based
# Conditions: for IC50: intact Jurkat cells, given as concentration range, or <X / >X if measured at one concentration X only, read-out: Des1 (h) Jurkat IC50
# Procedure: Measurement of Dihydroceramide Desaturase-1 (Des-1) Activity
# Compounds were assessed for Des-1 inhibitory activity. Measurement of Des1 activity was performed by HPLC using intact Jurkat cells labeled with DhCer-C6-NBD as described previously (Munoz-Olaya, J. M. et al. ChemMedChem 2008, 3, 946-953) with modifications to enhance sensitivity and reproducibility. These modifications included the use of parental Jurkat cells, 0.5% serum in the culture media, and cell harvesting via centrifugation at 500×g to maximise ceramide extraction. Extracted samples (50 ul) were analysed on a Waters HPLC coupled to a fluorescence detector using a 30 cm C18 reverse-phase column eluted with 1 ml/min 20% H2O and 80% acetonitrile, both with a 0.1% of trifluoroacetic acid. NBD-labelled substrate and product were quantitated with an excitation and emission wavelengths of 465 nm and 530 nm, respectively.
SMILES,IC50 [nM],also measured
"CN(O)C(=O)c1ccc(Nc2ncn(-c3ccc(C(F)(F)F)cc3)n2)cn1 [Example 25, N-Hydroxy-N-methyl-5-((1-(4-(trifluoromethyl)phenyl)-1H-1,2,4-triazol-3-yl)amino)picolinamide]",< 1000,
"N/C(=N\O)c1ncc(Nc2ncc(-c3ccc(C(F)(F)F)cc3)o2)cc1O [Example 26, N′,3-Dihydroxy-5-((5-(4-(trifluoromethyl)phenyl)oxazol-2-yl)amino)picolinimidamide]",1 to 10,
"Cc1cc(Nc2ncc(-c3ccc(C(F)(F)F)cc3)o2)cc(=O)n1O [Example 27, 1-Hydroxy-6-methyl-4-((5-(4-(trifluoromethyl)phenyl)oxazol-2-yl)amino)pyridin-2(1H)-one]",0.1 to 1,
"CN(O)C(=O)c1ncc(Nc2ncc(-c3ccc(C(F)(F)F)cc3)o2)cc1O [Example 28, N,3-Dihydroxy-N-methyl-5-((5-(4-(trifluoromethyl)phenyl)oxazol-2-yl)amino)picolinamide]",< 1000,
"O=c1c(O)c(Nc2ccc(Nc3ncc(-c4ccc(C(F)(F)F)cc4)o3)cn2)c1=O [Example 30, 3-Hydroxy-4-((5-((5-(4-(trifluoromethyl)phenyl)oxazol-2-yl)amino)pyridin-2-yl)amino)cyclobut-3-ene-1,2-dione]",< 1000,
"N/C(=N\O)c1ncc(Nc2ncn(-c3ccc(C(F)(F)F)cc3)n2)cc1O [Example 31, N′,3-Dihydroxy-5-((1-(4-(trifluoromethyl)phenyl)-1H-1,2,4-triazol-3-yl)amino)picolinimidamide]",< 1000,
"CCN(O)C(=O)c1ccc(Nc2ncc(-c3ccc(C(F)(F)F)cc3)o2)cn1 [Example 32, N-Ethyl-N-hydroxy-5-((5-(4-(trifluoromethyl)phenyl)oxazol-2-yl)amino)picolinamide]",< 1000,
"CC(C)N(O)C(=O)c1ccc(Nc2ncc(-c3ccc(C(F)(F)F)cc3)o2)cn1 [Example 34, N-Hydroxy-N-isopropyl-5-((5-(4-(trifluoromethyl)phenyl)oxazol-2-yl)amino)picolinamide]",> 1000,"inhibition at 1 µM (Jurkat cells, 1 μM): 23%"
"CN(O)C(=O)Nc1ccc(Nc2ncc(-c3ccc(C(F)(F)F)cc3)o2)cn1 [Example 35, 1-Hydroxy-1-methyl-3-(5-((5-(4-(trifluoromethyl)phenyl)oxazol-2-yl)amino)pyridin-2-yl)urea]",10 to 100,
"O=C(NC[C@@H](O)CO)c1ccc(Nc2ncc(-c3ccc(C(F)(F)F)cc3)o2)cn1 [Example 36, (R)—N-(2,3-Dihydroxypropyl)-5-((5-(4-(trifluoromethyl)phenyl)oxazol-2-yl)amino)picolinamide]",1 to 10,
"O=C(NC[C@H](O)CO)c1ccc(Nc2ncc(-c3ccc(C(F)(F)F)cc3)o2)cn1 [Example 37, (S)—N-(2,3-Dihydroxypropyl)-5-((5-(4-(trifluoromethyl)phenyl)oxazol-2-yl)amino)picolinamide]",> 1000,"% inhibition of Des1 at 1 μM (Jurkat cells, 1 μM): no inhibition"
"O=C(NC[C@@H](O)CO)c1ccc(Nc2ncn(-c3ccc(C(F)(F)F)cc3)n2)cn1 [Example 38, (R)—N-(2,3-Dihydroxypropyl)-5-((1-(4-(trifluoromethyl)phenyl)-1H-1,2,4-triazol-3-yl)amino)picolinamide]",> 1000,"inhibition at 1 µM (Jurkat cells, 1 μM): 30%"
"Cc1nc(Nc2cnc(/C(N)=N/O)c(O)c2)oc1-c1ccc(C(F)(F)F)cc1 [Example 39, N′,3-Dihydroxy-5-((4-methyl-5-(4-(trifluoromethyl)phenyl)oxazol-2-yl)amino)picolinimidamide]",< 1000,
"N/C(=N\O)c1ncc(Nc2ncc(-c3ccc(C(F)(F)F)cn3)o2)cc1O [Example 40, N′,3-Dihydroxy-5-((5-(5-(trifluoromethyl)pyridin-2-yl)oxazol-2-yl)amino)picolinimidamide hydrochloride]",10 to 100,
"O=C(NC[C@@H](O)CO)c1ccc(Nc2ncc(-c3ccc(C(F)(F)F)cc3)o2)nn1 [Example 41, (R)—N-(2,3-Dihydroxypropyl)-6-((5-(4-(trifluoromethyl)phenyl)oxazol-2-yl)amino)-pyridazine-3-carboxamide]",< 100,
"N/C(=N\O)c1ncc(Nc2ncc(-c3ccc(C(F)(F)F)c(F)c3)o2)cc1O [Example 43, 5-((5-(3-Fluoro-4-(trifluoromethyl)phenyl)oxazol-2-yl)amino)-N′,3-dihydroxypicolinimidamide]",1 to 10,
"O=C(NC[C@@H](O)CO)c1ccc(Nc2ncc(-c3ccc(C(F)(F)F)c(F)c3)o2)cn1 [Example 44, (R)—N-(2,3-Dihydroxypropyl)-5-((5-(3-fluoro-4-(trifluoromethyl)phenyl)oxazol-2-yl)amino)picolinamide]",1 to 10,

SMILES,IC50 [nM],also measured
"N/C(=N\O)c1ccc(Nc2ncc(-c3ccc(C(F)(F)F)c(F)c3)o2)cn1 [Example 45, 5-((5-(3-Fluoro-4-(trifluoromethyl)phenyl)oxazol-2-yl)amino)-N′-hydroxypicolinimidamide]",< 100,
"N=C(NO)c1ccc(Nc2ncc(-c3ccc(F)cc3)o2)nn1 [Example 47, 6-((5-(4-Fluorophenyl)oxazol-2-yl)amino)-N′-hydroxypyridazine-3-carboximidamide]",< 100,
"N=C(NO)c1ccc(Nc2ncc(-c3ccc(F)c(F)c3)o2)nn1 [Example 48, 6-((5-(3,4-Difluorophenyl)oxazol-2-yl)amino)-N′-hydroxypyridazine-3-carboximidamide]",1 to 10,
"N=C(NO)c1ccc(Nc2ncc(-c3ccc(F)cn3)o2)nn1 [Example 49, 6-((5-(5-Fluoropyridin-2-yl)oxazol-2-yl)amino)-N′-hydroxypyridazine-3-carboximidamide]",< 100,
"N=C(NO)c1cc(Nc2ncc(-c3ccc(C(F)(F)F)cc3)o2)ncc1O [Example 50, N,5-Dihydroxy-2-((5-(4-(trifluoromethyl)phenyl)oxazol-2-yl)amino)isonicotinimid-amide]",< 1000,
"N/C(=N\O)c1ccc(Nc2ncc(-c3ccc(OC(F)F)cc3)o2)cn1 [Example 51, 5-((5-(4-(Difluoromethoxy)phenyl)oxazol-2-yl)amino)-N′-hydroxy picolinimidamide]",100 to 1000,
"N/C(=N\O)c1ccc(Nc2ncc(-c3ccc(C(F)F)cc3)o2)cn1 [Example 52, 5-((5-(4-(Difluoromethyl)phenyl)oxazol-2-yl)amino)-N′-hydroxypicolinimidamide]",100 to 1000,
"N/C(=N\O)c1ccc(Nc2ncc(-c3ccc(C(F)(F)F)cc3)o2)nn1 [Example 53, N′-Hydroxy-6-((5-(4-(trifluoromethyl)phenyl)oxazol-2-yl)amino)pyridazine-3-carboximidamide]",1 to 10,
"N/C(=N\O)c1ncc(Nc2ncc(-c3ccc(C(F)(F)F)cn3)o2)cc1F [Example 56, 3-Fluoro-N′-hydroxy-5-((5-(5-(trifluoromethyl)pyridin-2-yl)oxazol-2-yl)amino)picolinimidamide]",,"% inhibition of Des1 at 0.1 μM (Jurkat cells, 0.1 μM): 86%"
"N/C(=N\O)c1ncc(Nc2ncc(-c3ccc(C(F)(F)F)cn3)o2)cn1 [Example 58, N′-Hydroxy-5-((5-(5-(trifluoromethyl)pyridin-2-yl)oxazol-2-yl)amino)pyrimidine-2-carboximidamide]",> 1000,"inhibition at 1 µM (Jurkat cells, 1 μM): 40%"
"N/C(=N\O)c1ccc(Nc2ncc(-c3ccc(C(F)(F)F)nc3)o2)cn1 [Example 59, N′-Hydroxy-5-((5-(6-(trifluoromethyl)pyridin-3-yl)oxazol-2-yl)amino)picolinimidamide]",< 1000,
"N/C(=N\O)c1ccc(Nc2nc(-c3ccc(C(F)(F)F)cc3)co2)cn1 [Example 60, N′-Hydroxy-5-((4-(4-(trifluoromethyl)phenyl)oxazol-2-yl)amino)picolinimidamide]",< 1000,
"N/C(=N\O)c1ccc(Nc2ncc(-c3ccc(C(F)(F)F)cn3)o2)nn1 [Example 61, N′-hydroxy-6-((5-(5-(trifluoromethyl)pyridin-2-yl)oxazol-2-yl)amino)pyridazine-3-carboximidamide]",< 100,
"N/C(=N/O)c1ccc(Nc2ncc(-c3ccc(C4CC4)cn3)o2)cn1 [Example 62, 5-((5-(5-Cyclopropylpyridin-2-yl)oxazol-2-yl)amino)-N′-hydroxypicolinimidamide]",> 1000,"inhibition at 1 µM (Jurkat cells, 1 μM): 42%"
"N/C(=N\O)c1cnc(Nc2ncc(-c3ccc(C(F)(F)F)cc3)o2)nc1 [Example 63, N′-Hydroxy-2-((5-(4-(trifluoromethyl)phenyl)oxazol-2-yl)amino)pyrimidine-5-carboximidamide]",> 1000,"inhibition at 1 µM (Jurkat cells, 1 μM): 23%"
"N/C(=N/O)c1ccc(Nc2ncc(-c3ccc(N4CC(F)(F)C4)cc3)o2)cn1 [Example 64, 5-((5-(4-(3,3-Difluoroazetidin-1-yl)phenyl)oxazol-2-yl)amino)-N′-hydroxypicolinimidamide]",> 1000,"inhibition at 1 µM (Jurkat cells, 1 μM): 23%"
"N/C(=N/O)c1ccc(Nc2ncc(-c3ncc(C(F)(F)F)cn3)o2)cn1 [Example 65, N′-Hydroxy-5-((5-(5-(trifluoromethyl)pyrimidin-2-yl)oxazol-2-yl)amino)picolinimidamide]",> 1000,"inhibition at 1 µM (Jurkat cells, 1 μM): 26%"
